In patent publication US20260297060A1, “COMPOUNDS FOR THE DEGRADATION OF MUTANT BRAF” (C4 THERAPEUTICS, INC., priority 2023, published 2026):
Where two headings read alike, the source gives them in different places.

Experiments:
[1] = system: A375-NRAS^Q61K cells; test: CTGlo Cell Viability Assay, A375-NRAS^Q61K (A375.11) cells, 96 hours; assay type: cell-based, human; conditions: Homo sapiens, 96 h, A375.11 (A375-NRAS^Q61K) cells; for Emax: lowest % viability achieved
Summary of the method: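 Viability as CellTiter-Glo ATP luminescence after 96 h compound exposure at 37 °C; A375.11 (BRAF V600E/NRAS Q61K) cells at 250/well, top final concentration 10 μM in half-log steps. Signal was background-corrected and set relative to DMSO controls. A 4-parameter logistic fit gave GI50 (50% crossing) and Emax.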

[2] = Example 6 pharmacokinetics assay for efficacy study (plasma, liver); assay type: in vivo, BALB/c nude mice; conditions: mouse, po, p.o., QD × 21 days
Method: For efficacy study, compounds were tested in the A375 human melanoma xenografts. Known BRAF inhibitors encorafenib, and dabrafenib were used as positive controls. Encorafenib and dabrafenib were administered to BALB/c nude mice bearing A375 tumors on PG-D1 and dosed PO daily (QD) for 3 weeks. Encorafenib was dosed at 35 mg/kg. Dabrafenib was dosed at 100 mg/kg. Compound 83, Compound 93, Compound 70, and Compound 54 were administered to BALB/c nude mice bearing A375 tumors on PG-DO and dosed PO twice per day (BID) for 3 weeks. Compound 83, Compound 93, Compound 70, and Compound 54 were dosed at 10 mg/kg.
The plasma samples were collected at predetermined time points for PK analysis. The mice were euthanized at predetermined time points post the treatment. The blood samples were collected into the 1.5 mL Eppendorf tubes containing 15 μL of 0.5 M EDTA-K2. And then the anticoagulant blood samples were centrifuged at 2,500 g at 4° C. for 15 minutes. The plasma samples were separated into 2 aliquots. The 1st was used for PK analysis, and the 2nd served as backup. The samples were stored at −80° C. before bioanalysis.
Liver samples were collected at predetermined time points for PK analysis. The left lobe of the liver was dissected out and split into 2 parts. The 1st part was used for PK analysis and the 2nd part served as the backup for the study. The samples were transferred into pre-labeled tubes and quickly froze in liquid nitrogen within 2 minutes after dissection. The samples were stored at −80° C. before bioanalysis.
For efficacy study, the harvested plasma and liver were processed for pharmacokinetics analysis by LC/MS/MS with a concentration range of 2.00-2000 ng/mL for Encorafenib and Dabrafenib in plasma, 0.20-200 ng/mL for Encorafenib and Dabrafenib in liver, 50.0-50000 ng/mL for compound 83 and compound 70 in plasma, 20.0-20000 ng/mL for Compound 93 and Compound 54 in plasma, 5.00-5000 ng/mL for compound 93, compound 83, compound 70 and compound 54 in liver.

Row | GI50 [1] [nM] | Compound | Emax [1] [%] | other results
1 | < 1000 | CO[C@@H]1CCN(S(=O)(=O)Nc2ccc(F)c(Oc3ccc4ncn(C5CC6(CCN(C7CC8(C7)CN(c7cc9c(cc7F)c(N7CCC(=O)NC7=O)nn9C)C8)CC6)C5)c(=O)c4c3)c2C#N)C1 (stereo partly drawn) [Compound 269, (3R)-N-[2-cyano-3-[3-[7-[2-[3-(2,4-dioxohexahydropyrimidin-1-yl)-5-fluoro-1-methyl-indazol-6-yl]-2-azaspiro[3.3]heptan-6-yl]-7-azaspiro[3.5]nonan-2-yl]-4-oxo-quinazolin-6-yl]oxy-4-fluoro-phenyl]-3-methoxy-pyrrolidine-1-sulfonamide] | < 50 | 
2 | < 1000 | COC1CN(S(=O)(=O)Nc2ccc(F)c(Oc3ccc4ncn(C5CC6(CCN(C7CC8(C7)CN(c7cc9c(cc7F)c(N7CCC(=O)NC7=O)nn9C)C8)CC6)C5)c(=O)c4c3)c2C#N)C1 (centres unmarked) [Compound 280, N-[2-cyano-3-[3-[7-[2-[3-(2,4-dioxohexahydropyrimidin-1-yl)-5-fluoro-1-methyl-indazol-6-yl]-2-azaspiro[3.3]heptan-6-yl]-7-azaspiro[3.5]nonan-2-yl]-4-oxo-quinazolin-6-yl]oxy-4-fluoro-phenyl]-3-methoxy-azetidine-1-sulfonamide] | < 50 | 
3 |  | CC(C)(C)c1nc(-c2cccc(NS(=O)(=O)c3c(F)cccc3F)c2F)c(-c2ccnc(N)n2)s1 [Dabrafenib, dabrafenib, reference compound] |  | concentration at 6 h ([2]; liver, 100 mg/kg, read-out: Concentration in Liver (mean ± SEM)): 216 ± 30.8 ng/g; concentration at 6 h ([2]; plasma, 100 mg/kg, read-out: Concentration in Plasma (mean ± SEM)): 86.1 ± 15.4 ng/mL
4 |  | COC(=O)N[C@@H](C)CNc1nccc(-c2cn(C(C)C)nc2-c2cc(Cl)cc(NS(C)(=O)=O)c2F)n1 [Encorafenib, encorafenib, reference compound] |  | concentration at 6 h ([2]; liver, 35 mg/kg, read-out: Concentration in Liver (mean ± SEM)): 481 ± 272 ng/g; concentration at 6 h ([2]; plasma, 35 mg/kg, read-out: Concentration in Plasma (mean ± SEM)): 992 ± 559 ng/mL
